HELM strings list units from the 5' end as sugar, base in round brackets, then linkage (d deoxyribose, r ribose, m 2'-O-methyl, p phosphodiester). Strings are as the collection lists them; they lack the last nucleoside at the 3' end of the tested compound. [moe] = 2'-O-(2-methoxyethyl) (MOE); [sp] = phosphorothioate linkage; [m5C] = 5-methylcytosine
Target: LRRK2
Test: mouse, dose not given
Settings: ASO

RNA1{[moe]([m5C])[sp].[moe](A)p.[moe](T)p.[moe](A)p.[moe](A)[sp].d(G)[sp].d(T)[sp].d(T)[sp].d(T)[sp].d([m5C])[sp].d(A)[sp].d(T)[sp].d(T)[sp].d([m5C])[sp].d(G)[sp].[moe](G)p.[moe](T)p.[moe](T)[sp].[moe](A)}$$$$ (last 3' nucleoside missing)
3 h FOB score: 5 score 0-7

RNA1{[moe]([m5C])[sp].[moe](G)p.[moe]([m5C])[sp].[moe](A)[sp].[moe]([m5C])[sp].d(T)[sp].d(T)[sp].d(A)[sp].d(A)[sp].d([m5C])[sp].d(A)[sp].d(A)[sp].d(T)[sp].d(A)[sp].d(T)[sp].[moe]([m5C])[sp].[moe](A)p.[moe](T)[sp].[moe](A)}$$$$ (last 3' nucleoside missing)
3 h FOB score: 1 score 0-7

RNA1{[moe]([m5C])[sp].[moe](G)p.[moe]([m5C])p.[moe](A)p.[moe]([m5C])[sp].d(T)[sp].d(T)[sp].d(A)[sp].d(A)[sp].d([m5C])[sp].d(A)[sp].d(A)[sp].d(T)[sp].d(A)[sp].d(T)[sp].[moe]([m5C])p.[moe](A)p.[moe](T)[sp].[moe](A)}$$$$ (last 3' nucleoside missing)
3 h FOB score: 0 score 0-7

RNA1{[moe]([m5C])[sp].[moe](T)p.[moe](G)[sp].[moe](T)[sp].[moe](T)[sp].d(A)[sp].d(T)[sp].d(T)[sp].d([m5C])[sp].d(T)[sp].d(G)[sp].d(A)[sp].d(T)[sp].d([m5C])[sp].d(A)[sp].[moe]([m5C])[sp].[moe](A)p.[moe]([m5C])[sp].[moe](G)}$$$$ (last 3' nucleoside missing)
3 h FOB score: 5 score 0-7

RNA1{[moe]([m5C])[sp].[moe](T)p.[moe](G)[sp].[moe](T)[sp].[moe]([m5C])[sp].d(A)[sp].d([m5C])[sp].d([m5C])[sp].d(T)[sp].d(T)[sp].d(T)[sp].d([m5C])[sp].d([m5C])[sp].d([m5C])[sp].d(A)[sp].[moe](A)[sp].[moe](T)p.[moe](G)[sp].[moe]([m5C])}$$$$ (last 3' nucleoside missing)
3 h FOB score: 3 score 0-7

RNA1{[moe]([m5C])[sp].[moe](T)p.[moe](T)[sp].[moe](T)[sp].[moe]([m5C])[sp].d(A)[sp].d(T)[sp].d(A)[sp].d(G)[sp].d([m5C])[sp].d(T)[sp].d(T)[sp].d([m5C])[sp].d([m5C])[sp].d(A)[sp].[moe]([m5C])[sp].[moe]([m5C])p.[moe](A)[sp].[moe]([m5C])}$$$$ (last 3' nucleoside missing)
3 h FOB score: 3 score 0-7

RNA1{[moe]([m5C])[sp].[moe](T)p.[moe](T)[sp].[moe]([m5C])[sp].[moe](A)[sp].d(G)[sp].d(T)[sp].d(T)[sp].d([m5C])[sp].d([m5C])[sp].d(T)[sp].d(T)[sp].d([m5C])[sp].d(A)[sp].d(G)[sp].[moe](T)[sp].[moe]([m5C])p.[moe](T)[sp].[moe]([m5C])}$$$$ (last 3' nucleoside missing)
3 h FOB score: 6 score 0-7

RNA1{[moe]([m5C])[sp].[moe](T)p.[moe](T)p.[moe](T)p.[moe]([m5C])[sp].d(A)[sp].d([m5C])[sp].d(T)[sp].d([m5C])[sp].d(A)[sp].d(T)[sp].d(A)[sp].d(G)[sp].d(G)[sp].d(G)[sp].[moe](A)p.[moe](A)p.[moe](T)[sp].[moe](G)}$$$$ (last 3' nucleoside missing)
3 h FOB score: 2.5 score 0-7

RNA1{[moe]([m5C])[sp].[moe](T)p.[moe](T)p.[moe]([m5C])p.[moe](A)[sp].d(G)[sp].d(T)[sp].d(T)[sp].d([m5C])[sp].d([m5C])[sp].d(T)[sp].d(T)[sp].d([m5C])[sp].d(A)[sp].d(G)[sp].[moe](T)p.[moe]([m5C])p.[moe](T)[sp].[moe]([m5C])}$$$$ (last 3' nucleoside missing)
3 h FOB score: 4 score 0-7

RNA1{[moe]([m5C])[sp].[moe](T)p.[moe]([m5C])p.[moe](A)p.[moe](T)[sp].d(A)[sp].d(T)[sp].d([m5C])[sp].d(T)[sp].d(A)[sp].d(A)[sp].d(A)[sp].d(G)[sp].d(A)[sp].d([m5C])[sp].[moe]([m5C])p.[moe](G)p.[moe]([m5C])[sp].[moe](A)}$$$$ (last 3' nucleoside missing)
3 h FOB score: 1 score 0-7

RNA1{[moe]([m5C])[sp].[moe]([m5C])p.[moe](A)[sp].[moe]([m5C])[sp].[moe](A)[sp].d(A)[sp].d(A)[sp].d([m5C])[sp].d(T)[sp].d([m5C])[sp].d(A)[sp].d(T)[sp].d(G)[sp].d(G)[sp].d(A)[sp].[moe]([m5C])[sp].[moe](T)p.[moe](T)[sp].[moe]([m5C])}$$$$ (last 3' nucleoside missing)
3 h FOB score: 7 score 0-7

RNA1{[moe]([m5C])[sp].[moe]([m5C])p.[moe](A)[sp].[moe]([m5C])[sp].[moe](A)[sp].d(A)[sp].d(A)[sp].d([m5C])[sp].d(T)[sp].d([m5C])[sp].d(A)[sp].d(T)[sp].d(G)[sp].d(G)[sp].d(A)[sp].[moe]([m5C])p.[moe](T)p.[moe](T)[sp].[moe]([m5C])}$$$$ (last 3' nucleoside missing)
3 h FOB score: 5 score 0-7

RNA1{[moe]([m5C])[sp].[moe]([m5C])p.[moe](A)p.[moe](T)p.[moe](A)[sp].d(T)[sp].d(T)[sp].d(T)[sp].d(A)[sp].d(G)[sp].d([m5C])[sp].d(T)[sp].d(T)[sp].d(A)[sp].d(T)[sp].[moe](G)p.[moe](A)p.[moe](T)[sp].[moe](G)}$$$$ (last 3' nucleoside missing)
3 h FOB score: 7 score 0-7

RNA1{[moe]([m5C])[sp].[moe]([m5C])p.[moe](A)p.[moe]([m5C])p.[moe](A)[sp].d(A)[sp].d(A)[sp].d([m5C])[sp].d(T)[sp].d([m5C])[sp].d(A)[sp].d(T)[sp].d(G)[sp].d(G)[sp].d(A)[sp].[moe]([m5C])p.[moe](T)p.[moe](T)[sp].[moe]([m5C])}$$$$ (last 3' nucleoside missing)
3 h FOB score: 6 score 0-7

RNA1{[moe]([m5C])[sp].[moe]([m5C])p.[moe](T)[sp].[moe](G)[sp].[moe](A)[sp].d([m5C])[sp].d(A)[sp].d(T)[sp].d(T)[sp].d(G)[sp].d([m5C])[sp].d([m5C])[sp].d(A)[sp].d([m5C])[sp].d(T)[sp].[moe]([m5C])[sp].[moe](A)p.[moe](T)[sp].[moe](G)}$$$$ (last 3' nucleoside missing)
3 h FOB score: 4 score 0-7
